Data from PMC3961306, “Comparison of the Cancer Gene Targeting and Biochemical Selectivities of All Targeted Kinase Inhibitors Approved for Clinical Use” (PLoS ONE, 2014).

Tests used:
Experiment in all cases: Kinase profiling in a biochemical assay panel (mobility shift assays and ELISA), %-inhibition at 1 μM; selectivity entropy
[1] = molecular target: panel of more than 300 wild-type and mutant kinases (313 kinase panel) (Homo sapiens, UniProt P07949, M918T); conditions: 1 µM
[2] = molecular target: T1, panel of more than 300 wild-type and mutant kinases (313 kinase panel) (Homo sapiens, UniProt Q9Y2U5); conditions: kinase MAP3K2; compound at 1 μM
T1 sequence (Q9Y2U5 1-619): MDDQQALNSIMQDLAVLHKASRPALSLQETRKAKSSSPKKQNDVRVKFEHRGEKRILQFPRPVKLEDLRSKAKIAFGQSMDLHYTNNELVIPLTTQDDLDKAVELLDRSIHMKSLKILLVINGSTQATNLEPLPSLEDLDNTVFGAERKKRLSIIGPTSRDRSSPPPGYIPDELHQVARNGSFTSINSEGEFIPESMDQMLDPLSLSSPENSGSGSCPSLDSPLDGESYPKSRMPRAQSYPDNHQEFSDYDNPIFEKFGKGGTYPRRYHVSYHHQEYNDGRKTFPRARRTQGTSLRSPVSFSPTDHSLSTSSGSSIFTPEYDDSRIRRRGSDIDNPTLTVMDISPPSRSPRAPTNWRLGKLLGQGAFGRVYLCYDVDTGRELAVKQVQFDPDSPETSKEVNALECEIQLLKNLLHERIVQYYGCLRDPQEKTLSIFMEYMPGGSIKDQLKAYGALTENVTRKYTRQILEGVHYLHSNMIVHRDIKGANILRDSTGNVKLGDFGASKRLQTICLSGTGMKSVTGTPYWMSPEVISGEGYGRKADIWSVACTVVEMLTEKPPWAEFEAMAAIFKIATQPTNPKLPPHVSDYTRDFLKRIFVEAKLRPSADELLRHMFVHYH

[3] = molecular target: panel of more than 300 wild-type and mutant kinases (313 kinase panel) (Homo sapiens, UniProt Q9UK32)
Sequence of panel of more than 300 wild-type and mutant kinases (313 kinase panel) (Homo sapiens, UniProt Q9UK32) (Q9UK32 whole entry, change not shown): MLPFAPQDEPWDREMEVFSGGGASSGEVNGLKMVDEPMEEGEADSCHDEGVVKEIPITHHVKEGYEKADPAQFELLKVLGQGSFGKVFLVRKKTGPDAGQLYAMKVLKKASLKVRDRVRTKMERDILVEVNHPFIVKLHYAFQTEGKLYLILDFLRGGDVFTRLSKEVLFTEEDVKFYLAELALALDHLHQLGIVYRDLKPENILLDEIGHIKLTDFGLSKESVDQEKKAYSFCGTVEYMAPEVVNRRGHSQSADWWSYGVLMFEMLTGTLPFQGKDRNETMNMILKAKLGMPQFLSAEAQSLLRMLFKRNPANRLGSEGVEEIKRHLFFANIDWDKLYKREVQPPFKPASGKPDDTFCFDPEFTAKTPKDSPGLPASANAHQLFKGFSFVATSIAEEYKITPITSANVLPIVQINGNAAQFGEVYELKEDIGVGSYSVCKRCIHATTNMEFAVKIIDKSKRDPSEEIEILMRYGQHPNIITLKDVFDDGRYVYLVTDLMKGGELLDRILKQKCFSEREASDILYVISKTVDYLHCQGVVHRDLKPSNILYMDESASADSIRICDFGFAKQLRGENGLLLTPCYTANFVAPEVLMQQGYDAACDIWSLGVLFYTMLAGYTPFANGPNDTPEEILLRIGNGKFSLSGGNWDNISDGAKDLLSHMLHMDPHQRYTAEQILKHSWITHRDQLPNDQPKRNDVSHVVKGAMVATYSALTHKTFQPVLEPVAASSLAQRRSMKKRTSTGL

[4] = molecular target: T2, panel of more than 300 wild-type and mutant kinases (313 kinase panel) (Homo sapiens, UniProt Q8TDC3); conditions: kinase BRSK1; 1 μM compound
T2 sequence (Q8TDC3 1-778): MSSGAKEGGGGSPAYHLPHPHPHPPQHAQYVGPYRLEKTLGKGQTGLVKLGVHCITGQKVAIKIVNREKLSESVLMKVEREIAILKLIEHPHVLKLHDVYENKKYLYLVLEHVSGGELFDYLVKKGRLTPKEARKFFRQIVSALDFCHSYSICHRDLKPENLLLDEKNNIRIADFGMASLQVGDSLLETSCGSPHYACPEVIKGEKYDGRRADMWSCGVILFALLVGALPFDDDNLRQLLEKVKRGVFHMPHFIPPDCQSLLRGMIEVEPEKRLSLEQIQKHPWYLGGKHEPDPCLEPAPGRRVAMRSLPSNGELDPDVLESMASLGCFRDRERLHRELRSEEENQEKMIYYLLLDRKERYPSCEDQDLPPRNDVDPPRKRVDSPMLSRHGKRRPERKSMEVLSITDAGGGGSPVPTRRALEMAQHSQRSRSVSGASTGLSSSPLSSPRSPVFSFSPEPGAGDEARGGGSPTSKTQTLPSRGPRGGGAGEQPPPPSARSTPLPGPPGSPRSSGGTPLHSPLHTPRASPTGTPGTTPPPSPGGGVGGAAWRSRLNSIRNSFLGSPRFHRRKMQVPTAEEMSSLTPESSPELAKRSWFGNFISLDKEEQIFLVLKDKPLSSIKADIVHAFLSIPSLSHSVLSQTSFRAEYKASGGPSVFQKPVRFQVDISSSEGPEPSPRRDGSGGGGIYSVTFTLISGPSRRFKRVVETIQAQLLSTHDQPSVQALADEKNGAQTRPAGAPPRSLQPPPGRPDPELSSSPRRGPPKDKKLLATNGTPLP

[5] = molecular target: panel of more than 300 wild-type and mutant kinases (313 kinase panel) (Homo sapiens, UniProt Q8N568); conditions: kinase DCAMKL2; compound at 1 μM
[6] = molecular target: T3, panel of more than 300 wild-type and mutant kinases (313 kinase panel) (Homo sapiens, UniProt Q05513); conditions: kinase PKCζ; 1 μM
T3 sequence (Q05513 1-592): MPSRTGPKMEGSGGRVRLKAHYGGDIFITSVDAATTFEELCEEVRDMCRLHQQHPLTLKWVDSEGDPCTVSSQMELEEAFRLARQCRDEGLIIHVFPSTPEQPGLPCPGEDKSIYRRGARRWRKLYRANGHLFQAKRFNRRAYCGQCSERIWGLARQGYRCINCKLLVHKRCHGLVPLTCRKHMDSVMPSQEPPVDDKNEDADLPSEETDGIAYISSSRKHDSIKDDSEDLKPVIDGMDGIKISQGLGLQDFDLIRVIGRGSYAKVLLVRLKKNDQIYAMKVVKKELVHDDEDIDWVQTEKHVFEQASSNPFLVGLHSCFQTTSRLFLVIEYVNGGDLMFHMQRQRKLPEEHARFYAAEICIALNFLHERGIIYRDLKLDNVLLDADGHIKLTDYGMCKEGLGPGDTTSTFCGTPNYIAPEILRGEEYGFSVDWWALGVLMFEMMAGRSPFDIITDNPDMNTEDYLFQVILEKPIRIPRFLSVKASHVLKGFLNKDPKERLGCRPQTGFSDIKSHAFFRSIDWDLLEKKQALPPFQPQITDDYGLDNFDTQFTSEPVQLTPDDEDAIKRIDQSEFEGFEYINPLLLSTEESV

[7] = molecular target: panel of more than 300 wild-type and mutant kinases (313 kinase panel) (Homo sapiens, UniProt P04626); conditions: 1 µM
Sequence of panel of more than 300 wild-type and mutant kinases (313 kinase panel) (Homo sapiens, UniProt P04626) (P04626 23-1255, change not shown): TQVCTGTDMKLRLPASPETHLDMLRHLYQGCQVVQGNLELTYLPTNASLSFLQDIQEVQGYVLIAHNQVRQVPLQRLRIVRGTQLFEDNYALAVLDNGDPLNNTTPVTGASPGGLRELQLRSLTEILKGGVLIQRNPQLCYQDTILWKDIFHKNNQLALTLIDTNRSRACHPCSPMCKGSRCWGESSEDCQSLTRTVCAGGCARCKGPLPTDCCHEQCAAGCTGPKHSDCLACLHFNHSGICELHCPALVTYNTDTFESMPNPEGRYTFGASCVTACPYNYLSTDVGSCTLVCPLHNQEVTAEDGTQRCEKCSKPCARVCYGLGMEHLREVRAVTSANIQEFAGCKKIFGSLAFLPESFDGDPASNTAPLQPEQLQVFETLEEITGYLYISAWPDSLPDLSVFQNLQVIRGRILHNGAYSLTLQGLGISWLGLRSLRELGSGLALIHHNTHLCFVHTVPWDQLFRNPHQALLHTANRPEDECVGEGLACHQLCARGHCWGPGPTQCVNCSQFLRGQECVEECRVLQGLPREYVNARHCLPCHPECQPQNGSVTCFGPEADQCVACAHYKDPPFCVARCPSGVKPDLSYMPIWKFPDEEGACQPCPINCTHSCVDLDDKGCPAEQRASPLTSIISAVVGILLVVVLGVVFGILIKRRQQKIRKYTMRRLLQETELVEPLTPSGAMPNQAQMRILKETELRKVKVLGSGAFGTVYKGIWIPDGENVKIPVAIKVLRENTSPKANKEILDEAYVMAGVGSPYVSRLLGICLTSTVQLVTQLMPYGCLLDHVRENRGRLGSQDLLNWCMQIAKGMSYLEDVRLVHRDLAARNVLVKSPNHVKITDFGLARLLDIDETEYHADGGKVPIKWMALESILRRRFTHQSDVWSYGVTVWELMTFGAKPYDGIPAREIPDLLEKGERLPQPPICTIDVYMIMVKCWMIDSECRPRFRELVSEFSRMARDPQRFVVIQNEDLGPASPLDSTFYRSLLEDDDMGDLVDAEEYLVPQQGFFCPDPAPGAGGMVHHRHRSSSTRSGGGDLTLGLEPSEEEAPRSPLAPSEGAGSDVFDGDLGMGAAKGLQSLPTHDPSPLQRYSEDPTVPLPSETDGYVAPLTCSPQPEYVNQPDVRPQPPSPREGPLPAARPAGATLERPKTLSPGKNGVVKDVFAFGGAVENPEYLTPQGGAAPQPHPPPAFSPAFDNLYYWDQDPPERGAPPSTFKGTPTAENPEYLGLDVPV

Sequence of panel of more than 300 wild-type and mutant kinases (313 kinase panel) (Homo sapiens, UniProt P07949, M918T) (P07949 29-1114 M918T): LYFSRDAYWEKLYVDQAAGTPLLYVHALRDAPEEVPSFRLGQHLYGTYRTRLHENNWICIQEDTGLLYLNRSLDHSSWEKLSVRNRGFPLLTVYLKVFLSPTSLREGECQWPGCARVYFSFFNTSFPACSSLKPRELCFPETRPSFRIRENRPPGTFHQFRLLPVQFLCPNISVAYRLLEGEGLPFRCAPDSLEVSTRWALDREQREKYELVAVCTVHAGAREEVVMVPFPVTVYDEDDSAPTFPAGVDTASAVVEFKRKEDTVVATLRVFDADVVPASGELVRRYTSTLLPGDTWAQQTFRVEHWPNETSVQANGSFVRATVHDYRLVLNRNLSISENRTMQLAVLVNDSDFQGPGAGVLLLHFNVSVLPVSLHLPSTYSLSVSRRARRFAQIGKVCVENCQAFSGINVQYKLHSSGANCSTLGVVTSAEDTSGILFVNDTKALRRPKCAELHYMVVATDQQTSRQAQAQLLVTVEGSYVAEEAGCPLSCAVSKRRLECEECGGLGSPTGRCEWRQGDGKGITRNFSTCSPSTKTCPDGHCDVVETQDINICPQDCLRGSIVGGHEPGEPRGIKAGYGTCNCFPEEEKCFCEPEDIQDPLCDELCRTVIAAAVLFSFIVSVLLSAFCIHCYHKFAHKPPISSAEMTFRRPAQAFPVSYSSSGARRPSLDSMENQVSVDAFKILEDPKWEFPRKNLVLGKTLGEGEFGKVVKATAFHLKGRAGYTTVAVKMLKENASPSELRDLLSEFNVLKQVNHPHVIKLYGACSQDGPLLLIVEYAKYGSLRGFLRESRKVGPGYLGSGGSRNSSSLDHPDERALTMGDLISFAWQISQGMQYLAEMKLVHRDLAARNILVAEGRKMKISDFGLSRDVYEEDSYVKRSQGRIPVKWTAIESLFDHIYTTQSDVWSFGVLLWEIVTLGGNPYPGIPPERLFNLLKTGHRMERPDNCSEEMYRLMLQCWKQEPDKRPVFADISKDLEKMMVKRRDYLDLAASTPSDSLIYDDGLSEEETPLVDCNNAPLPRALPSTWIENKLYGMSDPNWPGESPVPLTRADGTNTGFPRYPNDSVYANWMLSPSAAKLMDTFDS

Compound: CS(=O)(=O)CCNCc1ccc(-c2ccc3ncnc(Nc4ccc(OCc5cccc(F)c5)c(Cl)c4)c3c2)o1 [lapatinib]
- %-inhibition of RET(M918T) [1]: -4.37%
- %-inhibition of MAP3K2 [2]: 5.6%
- %-inhibition of RSK4 ([3]; 1 µM): 2.39%
- %-inhibition, BRSK1 [4]: 2%
- %-inhibition of DCAMKL2 [5]: 7%
- %-inhibition of PKCζ [6]: 0%
- %-inhibition of HER2 [7]: 85%

Compound: Cc1cn(-c2cc(NC(=O)c3ccc(C)c(Nc4nccc(-c5cccnc5)n4)c3)cc(C(F)(F)F)c2)cn1 [nilotinib]
- %-inhibition of RET(M918T) [1]: 0.118%
- %-inhibition of MAP3K2 [2]: -26%
- %-inhibition of RSK4 ([3]; kinase RSK4, 1 μM): 11%
- %-inhibition, BRSK1 [4]: 0.801%
- %-inhibition of DCAMKL2 [5]: -17%
- %-inhibition of PKCζ [6]: 5.32%
- %-inhibition of HER2 [7]: 4.25%
